These results are taken from ChEMBL document CHEMBL1143203, “Targeting the inverted CCAAT Box-2 of the topoisomerase IIalpha gene: DNA sequence selective recognition by a polyamide-intercalator as a staggered dimer” (Bioorg Med Chem, 2008).

The ΔTm is the shift of the melting midpoint relative to a reference.

For one assay, the system named is NIH3T3. The assay is described as follows: Induction of topoisomerase 2-alpha expression in mouse NIH3T3 cells at 10 uM after 24 hrs by Western blotting assay. Format: functional, cell-based. For orientation: Immunoblotting shows a protein as a band on a membrane.
Assay [1] in a line: Binding affinity to biotinylated AAGCTT DNA.
The nature of assay [2]: Binding affinity to biotinylated ACGCGT DNA.
Assay [3] can be described thus: Binding affinity to biotinylated AAATTT DNA.
In assay [4] the test system is Nucleic Acid. In words: Binding affinity to topoisomerase 2-alpha promoter AAGCTA DNA by thermal denaturation assay. It counts as nucleic-acid assay.
Assay [5] can be described thus: Inhibition of NF-Y binding to 5'-[32P]ICB2-containing DNA fragment at 50 uM after 2 hrs by electrophoretic mobility shift assay.
The test system of assay [6] is Nucleic Acid. The assay is described as follows: Binding affinity to topoisomerase 2-alpha promoter AAATTT 12 bp DNA by thermal denaturation assay. Format: nucleic-acid assay.
For assay [7], the system named is Nucleic Acid. In words: Binding affinity to topoisomerase 2alpha promoter AAATTT 11 bp DNA by thermal denaturation assay. Format: nucleic-acid assay.
Assay [8] deals with Nucleic Acid. In words: Binding affinity to topoisomerase 2alpha promoter ATGCAT DNA by thermal denaturation assay. It counts as nucleic-acid assay.
Assay [9] relates to Nucleic Acid. The assay is described as follows: Binding affinity to topoisomerase 2alpha promoter AAATTT 10 bp DNA by thermal denaturation assay. It counts as nucleic-acid assay.

Calls of active or inactive are those of the source. No cut-off for these calls is given here.

Turning to `CN(CCCNC(=O)CCCCCCCN1C(=O)c2cccc3cccc(c23)C1=O)CCCNC(=O)c1cc(NC(=O)c2cc(NC(=O)c3nc(NC=O)cn3C)cn2C)cn1C`, the outcome (in the assay on NIH3T3; in assay [5]) was Active. Besides, the K in assay [1] is 5.6 10^6/M; in [2], 2.8 10^5/M; in assay [3], 1.5 10^5/M. For the same compound, the results for the ΔTm with Nucleic Acid [4] and in the assay on Nucleic Acid [6] were 8.4 °C and 3.8 °C, respectively.

In the case of `CN(C)CCCNC(=O)c1cc(NC(=O)c2cc(NC(=O)c3nc(NC=O)cn3C)cn2C)cn1C`, the figures for the ΔTm with Nucleic Acid [7], with Nucleic Acid [8] and with Nucleic Acid [4] were 3.5 °C, 11 °C and 5.1 °C, respectively. Further, the K in assay [1] is 5.5 10^6/M; in assay [2], 9.5 10^4/M; in [3] it was 4.7 10^5/M. Further, in [5], the outcome was inactive.

With `CN(CCCN)CCCNC(=O)c1cc(NC(=O)c2cc(NC(=O)c3nc(NC=O)cn3C)cn2C)cn1C`, the ΔTm was 10 °C with Nucleic Acid [9] and over 22 °C with Nucleic Acid [4].
